{"source": "patent US11564924B2", "about": "“Pharmaceutical composition formed by combining pyridoxamine compound and thiamine compound” (RENASCIENCE CO., LTD., priority 2014, dated 2023)", "key": {"schizophrenia patients": {"test_system": "schizophrenia patients", "assay": "Total PANSS score in schizophrenia patients given the pyridoxamine compound", "format": "in vivo, human", "settings": "for Change from baseline in total PANSS score, Maximum / Change from baseline in total PANSS score, Median / Change from baseline in total PANSS score, Minimum / Change from baseline in total PANSS score, Mean change: FAS; for Change from baseline in total PANSS score, Mean change: 1200-2400 mg per day oral", "from_the_text": "The target subjects (subjects) of this test (administration of a pyridoxamine compound; hereinafter, this is also referred to as “drug administration”) were patients who were diagnosed with schizophrenia and met all of the following conditions (1) to (3):\nDrug administration was initiated for nine subjects from whom consent was obtained. The observation period was defined as the period from the day on which consent was obtained (Day −14) to the day 2 weeks after the day of consent (Day 0), and the initial day of drug administration was defined as Day 1. The data of Day 1 is data immediately before the start of administration of the pyridoxamine compound. The drug administration period was defined as the 24-week period from the start of drug administration (Day 1 to Day 169).\nIn the drug administration, pyridoxamine dihydrochloride was used as the pyridoxamine compound and orally administered in an amount of 1200 mg, 1800 mg, or 2400 mg per day (administered three times a day, morning, noon, and before bedtime, in an amount of 400 mg, 600 mg, or 800 mg each time). In the drug administration period, the dose was increased or decreased within the above range according to the condition of each patient.\nThe effect of administration of the pyridoxamine compound (drug administration) was evaluated according to the Positive and Negative Syndrome Scale (PANSS) score and the concentration of pentosidine in blood of the schizophrenia patients.\nThe PANSS score was determined by SCI-PANSS, which uses a structured interview, according to the Positive and Negative Syndrome Scale (PANSS) manual (translated by Hiroshi Yamada, Kanji Masui, and Hirotsugu Kikumoto; Tokyo: Seiwa Shoten Co., Ltd., 1991). An interview for evaluation was conducted for 30 evaluation items. Each item was scored on a scale of 1 to 7. The sum of the scores was calculated, and the difference between the PANSS score on Day 1 and the PANSS score on each test day was determined. […] The subjects were prohibited from taking hypnotic drugs or antianxiety drugs within 4 hours before PANSS evaluation."}, "[1]": {"assay": "Blood kinetics of pyridoxamine compound in people with reduced renal function", "format": "in vivo, human", "settings": "150 mg pyridoxamine dihydrochloride oral", "method": "As described in Experiment Example 1 above, administration of a pyridoxamine compound increases not only the blood pyridoxamine concentration, but also the blood pyridoxal concentration. Rather, in blood, the pyridoxal concentration was higher than the pyridoxamine concentration. Thus, changes in the serum concentrations of pyridoxamine, pyridoxal, pyridoxine, and 4-pyridoxic acid after administration of a pyridoxamine compound were observed over time.\nMore specifically, 150 mg of pyridoxamine dihydrochloride was orally administered to each of six people with reduced renal function (subjects) (average age: 56 years old, average body weight: 67 kg). Blood was collected 0.5, 1, 1.5, 2, 2.5, 3, 4, 5, 6, 8, 10, and 12 hours after the administration, and the serums were collected. Measurement of the serum concentrations of pyridoxamine, pyridoxal, pyridoxine, and 4-pyridoxic acid was outsourced to Shin Nippon Biomedical Laboratories, Ltd."}, "[2]": {"test_system": "vitamin B1 in human whole blood", "assay": "In vitro effect on vitamin B1 concentration in human whole blood", "settings": "human whole blood, 5, 50, 500 μg/mL, 37° C.", "from_the_text": "In addition, as described in Experiment Example 1 and Experiment Example 2, administration of a pyridoxamine compound increases not only the serum pyridoxamine concentration, but also the serum pyridoxal concentration, and thus, pyridoxamine and pyridoxal were both used as test substances for the investigation.\nBlood was collected from a human using EDTA⋅2K as an anticoagulant. In addition, pyridoxamine dihydrochloride (Sigma-Aldrich Japan) was used as pyridoxamine, and pyridoxal hydrochloride (Nacalai Tesque, Inc.) was used as pyridoxal. They were dissolved at 0.5, 5, and 50 mg/mL in physiological saline to prepare test solutions. 10 μL of each test solution was individually added per mL of the whole blood collected above (test samples). The final concentrations of each test substance in the test samples were 5, 50, 500 μg/mL. Further, a vehicle was prepared by adding 10 μl of physiological saline to 1 ml of the whole blood. The vehicle and the test samples were incubated at 37° C. for 1 hour or 16 hours and then immediately frozen. Measurement of the vitamin B1 concentrations in the whole blood before the start of the incubation to which neither the physiological saline nor any test solution was added (baseline: indicated by “BL” in FIG. 4), and in the vehicle and in each test sample after the incubation, was outsourced to SRL Inc., and the measurement was performed using LC/MS/MS."}}}
{"smiles": "Cc1ncc(CO)c(CN)c1O.Cl.Cl", "note": "[pyridoxamine dihydrochloride]", "values": [{"measurement": "Change from baseline in total PANSS score, Maximum", "setting": "schizophrenia patients; Day 15 (2 w)", "value": 12}, {"measurement": "Change from baseline in total PANSS score, Median", "setting": "schizophrenia patients; Day 15 (2 w)", "value": 3.0}, {"measurement": "Change from baseline in total PANSS score, Minimum", "setting": "schizophrenia patients; Day 15 (2 w)", "value": "−44"}, {"measurement": "Change from baseline in total PANSS score, Mean change", "setting": "schizophrenia patients; Day 15 (2 w)", "value": "−3.7"}, {"measurement": "Change from baseline in total PANSS score, Maximum", "setting": "schizophrenia patients; Day 29 (4 w)", "value": 10}, {"measurement": "Change from baseline in total PANSS score, Median", "setting": "schizophrenia patients; Day 29 (4 w)", "value": 1.0}, {"measurement": "Change from baseline in total PANSS score, Minimum", "setting": "schizophrenia patients; Day 29 (4 w)", "value": "−49"}, {"measurement": "Change from baseline in total PANSS score, Mean change", "setting": "schizophrenia patients; Day 29 (4 w)", "value": "−4.4"}, {"measurement": "Change from baseline in total PANSS score, Maximum", "setting": "schizophrenia patients; Day 57 (8 w)", "value": 13}, {"measurement": "Change from baseline in total PANSS score, Median", "setting": "schizophrenia patients; Day 57 (8 w)", "value": 1.0}, {"measurement": "Change from baseline in total PANSS score, Minimum", "setting": "schizophrenia patients; Day 57 (8 w)", "value": "−58"}, {"measurement": "Change from baseline in total PANSS score, Mean change", "setting": "schizophrenia patients; Day 57 (8 w)", "value": "−5.0"}, {"measurement": "Change from baseline in total PANSS score, Maximum", "setting": "schizophrenia patients; Day 85 (12 w)", "value": 21}, {"measurement": "Change from baseline in total PANSS score, Median", "setting": "schizophrenia patients; Day 85 (12 w)", "value": "−3.0"}, {"measurement": "Change from baseline in total PANSS score, Minimum", "setting": "schizophrenia patients; Day 85 (12 w)", "value": "−65"}, {"measurement": "Change from baseline in total PANSS score, Mean change", "setting": "schizophrenia patients; Day 85 (12 w)", "value": "−7.3"}, {"measurement": "Change from baseline in total PANSS score, Maximum", "setting": "schizophrenia patients; Day 113 (16 w)", "value": 8}, {"measurement": "Change from baseline in total PANSS score, Median", "setting": "schizophrenia patients; Day 113 (16 w)", "value": "−5.0"}, {"measurement": "Change from baseline in total PANSS score, Minimum", "setting": "schizophrenia patients; Day 113 (16 w)", "value": "−69"}, {"measurement": "Change from baseline in total PANSS score, Mean change", "setting": "schizophrenia patients; Day 113 (16 w)", "value": "−12.2"}, {"measurement": "Change from baseline in total PANSS score, Maximum", "setting": "schizophrenia patients; Day 141 (20 w)", "value": 17}, {"measurement": "Change from baseline in total PANSS score, Median", "setting": "schizophrenia patients; Day 141 (20 w)", "value": "−1.5"}, {"measurement": "Change from baseline in total PANSS score, Minimum", "setting": "schizophrenia patients; Day 141 (20 w)", "value": "−64"}, {"measurement": "Change from baseline in total PANSS score, Mean change", "setting": "schizophrenia patients; Day 141 (20 w)", "value": "−9.6"}, {"measurement": "Change from baseline in total PANSS score, Maximum", "setting": "schizophrenia patients; Day 169 (24 w)", "value": 14}, {"measurement": "Change from baseline in total PANSS score, Median", "setting": "schizophrenia patients; Day 169 (24 w)", "value": "−7.5"}, {"measurement": "Change from baseline in total PANSS score, Minimum", "setting": "schizophrenia patients; Day 169 (24 w)", "value": "−69"}, {"measurement": "Change from baseline in total PANSS score, Mean change", "setting": "schizophrenia patients; Day 169 (24 w)", "value": "−11.4"}, {"measurement": "Change from baseline in total PANSS score, Maximum", "setting": "schizophrenia patients; Final evaluation time point", "value": 14}, {"measurement": "Change from baseline in total PANSS score, Median", "setting": "schizophrenia patients; Final evaluation time point", "value": "−5.0"}, {"measurement": "Change from baseline in total PANSS score, Minimum", "setting": "schizophrenia patients; Final evaluation time point", "value": "−69"}, {"measurement": "Change from baseline in total PANSS score, Mean change", "setting": "schizophrenia patients; Final evaluation time point", "value": "−10.6"}, {"measurement": "PANSS score decreased by an average of", "setting": "schizophrenia patients; day 15 after the start of drug administration (Day 15)", "value": 3.7, "unit": "points"}, {"measurement": "PANSS score decreased by an average of", "setting": "schizophrenia patients; day 113 after the start of drug administration (Day 113)", "value": 12.2, "unit": "points"}, {"measurement": "effect on the symptom of schizophrenia", "setting": "schizophrenia patients; schizophrenia patients, 24-week administration", "value": "effective in improving the symptom of schizophrenia"}, {"measurement": "change in the concentration of pyridoxine (PN)", "setting": "[1]; serum up to 12 hours", "value": "No large change"}, {"measurement": "time after administration at which the serum concentration of pyridoxamine (unchanged form) peaked", "setting": "[1]; six people with reduced renal function", "value": 2, "unit": "h"}, {"measurement": "change in whole blood vitamin B1 concentration", "setting": "[2]; 1 hour incubation", "value": "no changes"}, {"measurement": "change in whole blood vitamin B1 concentration", "setting": "[2]; 16 hours incubation", "value": "decrease was similar to that in the vehicle"}]}
